The values below are quoted from earlier work in patent publication US5162573A, “Valproic and (E)-2-valproenoic acid derivatives, and pharmaceutical compositions therefrom” (Chiesi Farmaceutici S.p.A., priority 1986, dated 1992).

Molecules are shown by their SMILES.

The conditions of data set [1]: oral administration of equimolecular doses, in comparison with valproic acid.
Assay in data set [2]: not given
This is another data set of the same source.

For data set [3] the following is noted: in comparison with valproic acid.

On to `CC/C=C(\CCC)C(=O)O` [valproenoic acid, (E)-2-propyl-2-pentenoic acid], for which the “half life in man” value is 12.5 h. The “hepatic concentration” value in data set [1] is recorded as “remarkably reduced hepatic concentration in comparison with valproic acid”. The “toxic effects” value in data set [2] (in comparison with valproic acid) was “remarkably reduced toxic effects”. In data set [2] (in vivo), the “hepatic tolerability / hepatic reactions” value was “much better tolerated at hepatic level” and the “teratogenic effects” value is on record as “totally devoid of teratogenic effects”. The “anticonvulsivant activity, potency and duration of action” value in data set [3] was “a wide spectrum anticonvulsivant activity, a potency and a duration of action comparable to those of valproic acid”.
Take `CCCC(CCC)C(=O)O` [valproic acid, 2-propyl-2-pentanoic acid]: the “half life in man” value is 9 to 10 h. Moreover, in data set [2] (in vivo), the “teratogenic effects” value was “teratogenic effects”.
